Laboratory results: PubChem BioAssay AID2060610 (Molecular Pharmacology Branch, DTP, NCI, 2025)
pIC50: −log10 of the molar value. Several values for one entry are separate records, joined by “and”; a condition that tells them apart may be missing. Equal entries are not always repeated.

Tested on: 616215-338-R-J1-PDC complex spheroids, viability % test/control
Test: Anticancer human tumor 616215-338-R-J1-PDC patient-derived colon adenocarcinoma cell line growth inhibition [CLK]
Conditions: for viability, T/C: stronger effect = lower value; active means viability on the fitted dose curve at most 10% of control; inactive means the rest
In short: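 Patient-derived tumor cells grown as complex spheroids with HUVEC endothelial cells and mesenchymal stem cells, treated with drug combinations. Concentrations descend in half-log steps from near clinical Cmax, or from 10 microM if Cmax unknown.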

[1] = curve of first compound, second compound 0.0316 µM
[2] = curve of first compound, second compound 0.1 µM
[3] = curve of first compound, second compound 0.316 µM
[4] = curve of first compound, second compound 1 µM
[5] = curve of first compound, second compound 3.16 µM
[6] = curve of first compound, second compound 10 µM
[7] = second compound 0.0316 µM, first compound 0.0316 µM
[8] = second compound 0.0316 µM, first compound 0.1 µM
[9] = second compound 0.0316 µM, first compound 0.316 µM
[10] = second compound 0.0316 µM, first compound 1 µM
[11] = second compound 0.0316 µM, first compound 3.16 µM
[12] = second compound 0.0316 µM, first compound 10 µM
[13] = second compound 0.1 µM, first compound 0.0316 µM
[14] = second compound 0.1 µM, first compound 0.1 µM
[15] = second compound 0.1 µM, first compound 0.316 µM
[16] = second compound 0.1 µM, first compound 1 µM
[17] = second compound 0.1 µM, first compound 3.16 µM
[18] = second compound 0.1 µM, first compound 10 µM
[19] = second compound 0.316 µM, first compound 0.0316 µM
[20] = second compound 0.316 µM, first compound 0.1 µM
[21] = second compound 0.316 µM, first compound 0.316 µM
[22] = second compound 0.316 µM, first compound 1 µM
[23] = second compound 0.316 µM, first compound 3.16 µM
[24] = second compound 0.316 µM, first compound 10 µM
[25] = second compound 1 µM, first compound 0.0316 µM
[26] = second compound 1 µM, first compound 0.1 µM
[27] = second compound 1 µM, first compound 0.316 µM
[28] = second compound 1 µM, first compound 1 µM
[29] = second compound 1 µM, first compound 3.16 µM
[30] = second compound 1 µM, first compound 10 µM
[31] = second compound 3.16 µM, first compound 0.0316 µM
[32] = second compound 3.16 µM, first compound 0.1 µM
[33] = second compound 3.16 µM, first compound 0.316 µM
[34] = second compound 3.16 µM, first compound 1 µM
[35] = second compound 3.16 µM, first compound 3.16 µM
[36] = second compound 3.16 µM, first compound 10 µM
[37] = second compound 10 µM, first compound 0.0316 µM
[38] = second compound 10 µM, first compound 0.1 µM
[39] = second compound 10 µM, first compound 0.316 µM
[40] = second compound 10 µM, first compound 1 µM
[41] = second compound 10 µM, first compound 3.16 µM
[42] = second compound 10 µM, first compound 10 µM
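Further: spheroids exposed to agents for 7 days.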
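Wherever viability, T/C is given: 100% = DMSO vehicle wells.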

CC1(C)CCC(CN2CCN(c3ccc(C(=O)NS(=O)(=O)c4ccc(NCC5CCOCC5)c([N+](=O)[O-])c4)c(Oc4cnc5[nH]ccc5c4)c3)CC2)=C(c2ccc(Cl)cc2)C1 + CNC(=O)c1ccc(Nc2nc(OC3CCCC3)c3c(-c4ccc5nc(C)oc5c4)c[nH]c3n2)c(OC)c1
> 7.50: pIC50 [3] | pIC50 [4] | pIC50 [5] | pIC50 [6]
< 5.00: pIC50 [1]
inactive: viability, T/C [7] 101% | viability, T/C [8] 99.1% | viability, T/C [9] 92.8% | viability, T/C [10] 100% | viability, T/C [11] 80% | viability, T/C [12] 91.5% | viability, T/C [13] 55.3% | viability, T/C [14] 50.6% | viability, T/C [15] 50.9% | viability, T/C [16] 42.8% | viability, T/C [17] 18.5% | viability, T/C [18] 56.7% | viability, T/C [19] 46.6% | viability, T/C [20] 49% | viability, T/C [21] 45.4% | viability, T/C [22] 33.9% | viability, T/C [23] 21.2% | viability, T/C [24] 45.7% | viability, T/C [25] 50.9% | viability, T/C [26] 48.2% | viability, T/C [27] 46.2% | viability, T/C [28] 35.9% | viability, T/C [29] 20.5% | viability, T/C [30] 48.9% | viability, T/C [31] 38.8% | viability, T/C [32] 42.5% | viability, T/C [33] 44.6% | viability, T/C [34] 33.3% | viability, T/C [35] 24.8% | viability, T/C [36] 50.7% | viability, T/C [37] 36.3% | viability, T/C [38] 42% | viability, T/C [39] 41.7% | viability, T/C [40] 41% | viability, T/C [41] 27.2% | viability, T/C [42] 41.7%
6.38: pIC50 [2]

O=c1[nH]cc(F)c(=O)[nH]1 + CNC(=O)c1ccc(Nc2nc(OC3CCCC3)c3c(-c4ccc5nc(C)oc5c4)c[nH]c3n2)c(OC)c1
inactive: viability, T/C [7] 96.7% | viability, T/C [8] 110% | viability, T/C [9] 60.2% | viability, T/C [10] 52.3% | viability, T/C [11] 43.1% | viability, T/C [12] 41.4% | viability, T/C [13] 47% | viability, T/C [14] 45.9% | viability, T/C [15] 35% | viability, T/C [16] 34.1% | viability, T/C [17] 40.9% | viability, T/C [18] 36.5% | viability, T/C [19] 41.6% | viability, T/C [20] 41.7% | viability, T/C [21] 33.6% | viability, T/C [22] 37.3% | viability, T/C [23] 36.6% | viability, T/C [24] 39.3% | viability, T/C [25] 43.4% | viability, T/C [26] 38% | viability, T/C [27] 36.3% | viability, T/C [28] 37.8% | viability, T/C [29] 38.2% | viability, T/C [30] 33.3% | viability, T/C [31] 42.3% | viability, T/C [32] 42.2% | viability, T/C [33] 38% | viability, T/C [34] 32.6% | viability, T/C [35] 36% | viability, T/C [36] 36.4% | viability, T/C [37] 51.1% | viability, T/C [38] 41.3% | viability, T/C [39] 41.8% | viability, T/C [40] 38.5% | viability, T/C [41] 37.1% | viability, T/C [42] 39.2%
6.15: pIC50 [1]
> 7.50: pIC50 [2] | pIC50 [3] | pIC50 [4] | pIC50 [5] | pIC50 [6]

COc1cccc2c1C(=O)c1c(O)c3c(c(O)c1C2=O)CC(O)(C(=O)CO)CC3OC1CC(N)C(O)C(C)O1 (stereo unspecified)
inactive: viability, T/C (compound 0.0316 µM) 102% and 112% | viability, T/C (compound 0.1 µM) 45.9% and 64.2% | viability, T/C (compound 0.316 µM) 40.4% and 49.8% | viability, T/C (compound 1 µM) 24% and 41.3%
6.85 and 6.52: pIC50 (curve of compound)
0.74% and 0.78%: viability, T/C (compound 3.16 µM)
active: viability, T/C (compound 10 µM) 0.16% and 0.24%
